The source of these data is PubChem BioAssay (NCI).

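Test compounds were applied to cells in 96-well plates for 48 hours at 5 doses. TGI marks complete inhibition of growth.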 Where only a bound is given, the exact number is not on record here.

Test systems include RPMI-8226 leukemia; SF-268 CNS; NCI/ADR-RES ovarian; HS 578T breast; SF-295 CNS; MDA-N; UACC-62 melanoma; SF-539 CNS; HCT-116 colon; HOP-92 NSCLC; DU-145 prostate; EKVX NSCLC; U251 CNS.
What all share (assay): NCI tumour cell line growth inhibition, 48 h

With `Cc1cc2nc3ccccc3n2c2nc(N)ccc12`, the TGI in the assay on RPMI-8226 leukemia was 70.2 µM; with SF-268 CNS it was > 100 µM; in the assay on NCI/ADR-RES ovarian, > 100 µM; in the assay on HS 578T breast it was > 100 µM; in the assay with SF-295 CNS, 71.5 µM; in the assay with MDA-N, > 100 µM. The TGI is > 100 µM in the assay on UACC-62 melanoma; 51.6 µM with SF-539 CNS; > 100 µM in the assay on HCT-116 colon; 69 µM in the assay on HOP-92 NSCLC; > 100 µM in the assay on DU-145 prostate; > 100 µM in the assay on EKVX NSCLC.

For the compound `C=C1C(=O)O[C@H]2C1C[C@@H](OC(C)=O)/C(C)=C/CC[C@@]1(C)O[C@H]21` (stereo not given in full), the TGI with RPMI-8226 leukemia was 13.6 µM; in the assay with U251 CNS, > 100 µM; in the assay on NCI/ADR-RES ovarian, 32.3 µM; in the assay with HS 578T breast it was 86 µM; with SF-295 CNS, 50.9 µM; in the assay with MDA-N, 18.7 µM. Moreover, the TGI in the assay on UACC-62 melanoma came out at 15.6 µM; with HCT-116 colon it was 20.9 µM; with HOP-92 NSCLC, 32.4 µM; with DU-145 prostate it was 27.8 µM; with EKVX NSCLC, 35.2 µM.

Consider `Cc1cc(=O)oc2cc(OCC(O)COC(C)C)ccc12` (stereo not given), for which the TGI with RPMI-8226 leukemia, in the assay with SF-268 CNS, in the assay on U251 CNS, with NCI/ADR-RES ovarian, in the assay with HS 578T breast and in the assay with SF-295 CNS was > 100 µM in each case. The TGI in the assay on MDA-N, with UACC-62 melanoma, in the assay with HCT-116 colon, in the assay on HOP-92 NSCLC, with DU-145 prostate and in the assay on EKVX NSCLC was > 100 µM in each case.

`C=CC1CN(C(=O)OCC)N(C(=O)OCC)C1CCc1ccccc1` (stereo not given): the TGI in the assay with RPMI-8226 leukemia, in the assay on SF-268 CNS, in the assay on U251 CNS, in the assay on NCI/ADR-RES ovarian, in the assay on HS 578T breast and with SF-295 CNS was > 100 µM in each case. For the same compound, the TGI in the assay on MDA-N, in the assay on UACC-62 melanoma, in the assay with HCT-116 colon, in the assay with HOP-92 NSCLC, in the assay with DU-145 prostate and in the assay with EKVX NSCLC was > 100 µM each time.

`NC1CCC(N(CC(=O)O)CC(=O)O)C(N(CC(=O)O)CC(=O)O)C1` (stereo not given): the TGI in the assay with RPMI-8226 leukemia, in the assay on SF-268 CNS, in the assay on U251 CNS, in the assay with NCI/ADR-RES ovarian, with HS 578T breast and with SF-295 CNS was > 100 µM each time. In addition, the TGI in the assay on MDA-N, in the assay on UACC-62 melanoma, in the assay on SF-539 CNS, with HCT-116 colon, in the assay with HOP-92 NSCLC and in the assay with DU-145 prostate was > 100 µM each time.

As for `O=C1O[C@H]2[C@H](OC(=O)c3cc(O)c(O)c(O)c3)[C@@H](OC(=O)c3cc(O)c(O)c4c3[C@@H]3C1=CC(=O)C(O)(O)C3(O)O4)[C@H](OC(=O)c1cc(O)c(O)c(O)c1)O[C@@H]2COC(=O)c1cc(O)c(O)c(O)c1` (stereo not given in full), the TGI in the assay on RPMI-8226 leukemia, in the assay with SF-268 CNS, in the assay with U251 CNS, in the assay with NCI/ADR-RES ovarian, with HS 578T breast and in the assay with SF-295 CNS was > 100 µM in each case. The TGI in the assay with MDA-N, in the assay with UACC-62 melanoma, in the assay with HCT-116 colon, in the assay with HOP-92 NSCLC, in the assay with DU-145 prostate and in the assay with EKVX NSCLC was > 100 µM in each case.

For the compound `Cc1ccc(C)n2c1nc1ccccc12`, the TGI in the assay on RPMI-8226 leukemia, in the assay with SF-268 CNS, with U251 CNS, with NCI/ADR-RES ovarian, in the assay on HS 578T breast and with SF-295 CNS was > 100 µM each time. Besides, the TGI with MDA-N, in the assay with UACC-62 melanoma, with SF-539 CNS, with HOP-92 NSCLC, in the assay on DU-145 prostate and with EKVX NSCLC was > 100 µM in each case.

For the compound `CC(=O)NCC1OC2COC(c3ccccc3)OC2C(NC(=O)c2ccccc2)C1OC(=O)c1ccccc1` (stereo not given), the TGI in the assay on SF-268 CNS, in the assay with U251 CNS, in the assay with NCI/ADR-RES ovarian, in the assay with HS 578T breast, in the assay with SF-295 CNS and in the assay with MDA-N was > 100 µM throughout. In addition, the TGI with UACC-62 melanoma, in the assay with SF-539 CNS, in the assay with HCT-116 colon, in the assay with HOP-92 NSCLC, with DU-145 prostate and with EKVX NSCLC was > 100 µM in each case.

With `N[C@@H]1CCN(c2c(F)cc3c(=O)c(C(=O)O)cn4c3c2Oc2cc3c(ccc5ccccc53)cc2-4)C1`, the TGI in the assay with RPMI-8226 leukemia is > 100 µM; with U251 CNS, 5.04 µM; with NCI/ADR-RES ovarian, > 100 µM; with HS 578T breast, > 100 µM; in the assay with SF-295 CNS it was > 100 µM; with MDA-N, > 100 µM. Also, the TGI is 26.7 µM in the assay with UACC-62 melanoma; 28.5 µM in the assay on SF-539 CNS; 18.5 µM with HCT-116 colon; 7.56 µM in the assay on HOP-92 NSCLC; > 100 µM in the assay with DU-145 prostate.

As for `CC(=O)OCC(=O)OC[C@H](OCc1ccccc1)[C@@H]1[C@H](OC(C)=O)C(=O)N1Cc1ccccc1`, the TGI in the assay on RPMI-8226 leukemia, in the assay on SF-268 CNS, in the assay on U251 CNS, with NCI/ADR-RES ovarian, in the assay on HS 578T breast and in the assay on SF-295 CNS was > 100 µM throughout. The TGI with MDA-N, in the assay on UACC-62 melanoma, in the assay with HCT-116 colon, in the assay on HOP-92 NSCLC, in the assay on DU-145 prostate and with EKVX NSCLC was > 100 µM in each case.

As for `O=C1/C(=C/c2ccccc2[N+](=O)[O-])N=C(c2ccccc2)N1c1nc2ccccc2s1`, the TGI in the assay with RPMI-8226 leukemia is 61.6 µM; with SF-268 CNS, 60.4 µM; in the assay on U251 CNS, > 100 µM; in the assay on NCI/ADR-RES ovarian, 39.5 µM; in the assay with HS 578T breast it was 62.4 µM; in the assay on SF-295 CNS it was > 100 µM. In addition, the TGI in the assay with MDA-N was 71.9 µM; in the assay on SF-539 CNS, 81.3 µM; with HCT-116 colon, 38.5 µM; with HOP-92 NSCLC, 52.1 µM; in the assay with DU-145 prostate, 47.6 µM; in the assay with EKVX NSCLC, > 100 µM.
